Data: patent US10294234B2, “HIV inhibitor compounds” (priority 2017, dated 2019)
Read-outs that look alike come from different tables or passages of the source.

Assays:
[1] = How it was run: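 Dog, rat and human liver microsomes (0.5 mg/mL) with NADPH-regenerating cofactor; test compound 1 uM, duplicates. Timepoints 2, 12, 25, 45, 65 min; protein removed by centrifugation, supernatant analysed by LC/MS/MS. Clint from t1/2.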
[2] = system: HIV-1 (IIIB) in MT-4 cells; assay: MT-4 HIV assay; format: cell-based; conditions: Human immunodeficiency virus 1, MT4, 120 h
How it was run: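 MT-4 cells infected with HIV-1 IIIB (1:250 stock dilution) were incubated with 1:3 serially diluted compounds in RPMI with 10% FBS for 5 days at 37 °C. Cell Titer Glo luminescence was the readout. Plates included mock-infected wells, no-drug wells and 5 uM AZT controls.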

[3] = human liver microsomes 0.5 mg/mL, 1 uM compound, NADPH
[4] = rat liver microsomes 0.5 mg/mL, 1 uM compound, NADPH
[5] = HIV-1 (IIIB), MT-4 cells, 5 days, Cell Titer Glo, read-out: EC50

Row | SMILES | Human Pred Cl. [1, 3] [L/H/kg] | Rat. Pred. Cl. [1, 4] [L/H/kg] | EC50 [2, 5] [nM] | Dog. Pred. Cl. ([1]; dog, microsomes) [L/H/kg] | Human Pred Cl. ([1]; human, microsomes) [L/H/kg] | Rat. Pred. Cl. ([1]; rat, microsomes) [L/H/kg] | EC50 [2] [nM]
1 | COC(=O)N[C@H](C(=O)N[C@@H](Cc1ccc(C#Cc2ccc(N3CCN(C4CCOCC4)CC3)nc2)cc1)[C@@H](O)CN(Cc1c(F)cc(-c2cnn(C(F)F)c2)cc1F)NC(=O)[C@@H](NC(=O)OC)C(C)(C)C(F)(F)F)C(C)(C)C(F)(F)F [Example 115, Methyl ((5S,8S,9S,14S)-11-(4-(1-(difluoromethyl)-1H-pyrazol-4-yl)-2,6-difluorobenzyl)-16,16,16-trifluoro-9-hydroxy-15,15-dimethyl-3,6,13-trioxo-8-(4-((6-(4-(tetrahydro-2H-pyran-4-yl)piperazin-1-yl)pyridin-3-yl)ethynyl)benzyl)-5-(1,1,1-trifluoro-2-methylpropan-2-yl)-2-oxa-4,7,11,12-tetraazahexadecan-14-yl)carbamate] | 0.12 | <0.18 | 3.19 |  |  |  | 
2 | COC(=O)N[C@H](C(=O)N[C@@H](Cc1ccc(C#Cc2cnc(N3CC4CCC(C3)N4C3COC3)nc2)cc1)[C@@H](O)CN(Cc1c(F)cc(-c2cnc(C)nc2)cc1F)NC(=O)[C@@H](NC(=O)OC)C(C)(C)C(F)(F)F)C(C)(C)C(F)(F)F [Example 119, Methyl ((5S,8S,9S,14S)-11-(2,6-difluoro-4-(2-methylpyrimidin-5-yl)benzyl)-16,16,16-trifluoro-9-hydroxy-15,15-dimethyl-8-(4-((2-(8-(oxetan-3-yl)-3,8-diazabicyclo[3.2.1]octan-3-yl)pyrimidin-5-yl)ethynyl)benzyl)-3,6,13-trioxo-5-(1,1,1-trifluoro-2-methylpropan-2-yl)-2-oxa-4,7,11,12-tetraazahexadecan-14-yl)carbamate] |  |  | 3.66 | 1.35 | <0.11 | 0.27 | 
3 | COC(=O)N[C@H](C(=O)N[C@@H](Cc1ccc(C#Cc2cnc(N3CC4CCC(C3)N4C3COC3)nc2)cc1)[C@@H](O)CN(Cc1c(F)cc(-c2cnc(N3CC4CCC(C3)N4C3COC3)nc2)cc1F)NC(=O)[C@@H](NC(=O)OC)C(C)(C)C(F)(F)F)C(C)(C)C(F)(F)F [Example 120, Methyl ((5S,8S,9S,14S)-11-(2,6-difluoro-4-(2-(8-(oxetan-3-yl)-3,8-diazabicyclo[3.2.1]octan-3-yl)pyrimidin-5-yl)benzyl)-16,16,16-trifluoro-9-hydroxy-15,15-dimethyl-8-(4-((2-(8-(oxetan-3-yl)-3,8-diazabicyclo[3.2.1]octan-3-yl)pyrimidin-5-yl)ethynyl)benzyl)-3,6,13-trioxo-5-(1,1,1-trifluoro-2-methylpropan-2-yl)-2-oxa-4,7,11,12-tetraazahexadecan-14-yl)carbamate] |  |  | 5.36 |  | 0.14 | 0.53 | 
4 | COC(=O)N[C@H](C(=O)N[C@@H](Cc1ccc(C#Cc2cnc(N3CC4CCC(C3)N4C3COC3)nc2)cc1)[C@@H](O)CN(Cc1c(F)cc(-c2ccn(C(F)F)n2)cc1F)NC(=O)[C@@H](NC(=O)OC)C(C)(C)C)C(C)(C)C [Example 121, Methyl ((5S,8S,9S,14S)-5-(tert-butyl)-11-(4-(1-(difluoromethyl)-1H-pyrazol-3-yl)-2,6-difluorobenzyl)-9-hydroxy-15,15-dimethyl-8-(4-((2-(8-(oxetan-3-yl)-3,8-diazabicyclo[3.2.1]octan-3-yl)pyrimidin-5-yl)ethynyl)benzyl)-3,6,13-trioxo-2-oxa-4,7,11,12-tetraazahexadecan-14-yl)carbamate] |  |  | 3.31 |  | <0.11 | <0.18 | 
5 | COC(=O)N[C@H](C(=O)N[C@@H](Cc1ccc(C#Cc2cnc(N3CC4CCC(C3)N4C3COC3)nc2)cc1)[C@@H](O)CN(Cc1ccc(-c2ccn(C(F)F)n2)cc1)NC(=O)[C@@H](NC(=O)OC)C(C)(C)C(F)(F)F)C(C)(C)C(F)(F)F [Example 122, Methyl ((5S,8S,9S,14S)-11-(4-(1-(difluoromethyl)-1H-pyrazol-3-yl)benzyl)-16,16,16-trifluoro-9-hydroxy-15,15-dimethyl-8-(4-((2-(8-(oxetan-3-yl)-3,8-diazabicyclo[3.2.1]octan-3-yl)pyrimidin-5-yl)ethynyl)benzyl)-3,6,13-trioxo-5-(1,1,1-trifluoro-2-methylpropan-2-yl)-2-oxa-4,7,11,12-tetraazahexadecan-14-yl)carbamate] |  |  | 4.57 |  | <0.11 |  | 
6 | COC(=O)N[C@H](C(=O)N[C@@H](Cc1ccc(C#Cc2cnc(N3CCNC(=O)C3)nc2)cc1)[C@@H](O)CN(Cc1c(F)cc(-c2ccn(C(F)F)n2)cc1F)NC(=O)[C@@H](NC(=O)OC)C(C)(C)C(F)(F)F)C(C)(C)C(F)(F)F [Example 123, Methyl ((5S,8S,9S,14S)-11-(4-(1-(difluoromethyl)-1H-pyrazol-3-yl)-2,6-difluorobenzyl)-16,16,16-trifluoro-9-hydroxy-15,15-dimethyl-3,6,3-trioxo-8-(4-((2 (3-oxopiperazin-1-yl)pyrimidin-5-yl)ethynyl)benzyl)-5-(1,1,1-trifluoro-2-methylpropan-2-yl)-2-oxa-4,7,11,12-tetraazahexadecan-14-yl)carbamate] | <0.11 | <0.18 |  |  |  |  | 4.16
7 | COCCN1C2CCC1CN(c1ccc(C#Cc3ccc(C[C@H](NC(=O)[C@@H](NC(=O)OC)C(C)(C)C(F)(F)F)[C@@H](O)CN(Cc4c(F)cc(-c5ccn(C(F)F)n5)cc4F)NC(=O)[C@@H](NC(=O)OC)C(C)(C)C(F)(F)F)cc3)cn1)C2 [Example 124, Methyl ((5S,8S,9S,14S)-11-(4-(1-(difluoromethyl)-1H-pyrazol-3-yl)-2,6-difluorobenzyl)-16,16,16-trifluoro-9-hydroxy-8-(4-((6-(8-(2-methoxyethyl)-3,8-diazabicyclo[3.2.1]octan-3-yl)pyridin-3-yl)ethynyl)benzyl)-15,15-dimethyl-3,6,13-trioxo-5-(1,1,1-trifluoro-2-methylpropan-2-yl)-2-oxa-4,7,11,12-tetraazahexadecan-14-yl)carbamate] |  |  | 6.32 |  | <0.11 | 0.5 | 
8 | COC(=O)N[C@H](C(=O)N[C@@H](Cc1ccc(C#Cc2ccc(N3CC4CCC(C3)N4C3COC3)nc2)cc1)[C@@H](O)CN(Cc1c(F)cc(-c2cc[nH]n2)cc1F)NC(=O)[C@@H](NC(=O)OC)C(C)(C)C(F)(F)F)C(C)(C)C(F)(F)F [Example 126, Methyl ((5S,8S,9S,14S)-11-(2,6-difluoro-4-(1H-pyrazol-3-yl)benzyl)-16,16,16-trifluoro-9-hydroxy-15,15-dimethyl-8-(4-((6-(8-(oxetan-3-yl)-3,8-diazabicyclo[3.2.1]octan-3-yl)pyridin-3-yl)ethynyl)benzyl)-3,6,13-trioxo-5-(1,1,1-trifluoro-2-methylpropan-2-yl)-2-oxa-4,7,11,12-tetraazahexadecan-14-yl)carbamate] |  |  | 4.13 |  | 0.45 | <0.18 | 
